This passage reports Ki results from patent US20230159532A1, “PARATHYROID HORMONE (PTH) RECEPTOR ANTAGONISTS AND USES THEREOF” (Crinetics Pharmaceuticals, Inc., priority 2021, published 2023).

A word on the Ki: it is a dissociation constant, usually derived from enzyme kinetics or from competition with a known ligand.

Some results are limits rather than exact numbers.

This test has as its target T1, human PTHR1 receptor (Homo sapiens, UniProt Q03431).
T1 construct: purchased Eurofins HTS030M
T1 sequence (Q03431 27-593): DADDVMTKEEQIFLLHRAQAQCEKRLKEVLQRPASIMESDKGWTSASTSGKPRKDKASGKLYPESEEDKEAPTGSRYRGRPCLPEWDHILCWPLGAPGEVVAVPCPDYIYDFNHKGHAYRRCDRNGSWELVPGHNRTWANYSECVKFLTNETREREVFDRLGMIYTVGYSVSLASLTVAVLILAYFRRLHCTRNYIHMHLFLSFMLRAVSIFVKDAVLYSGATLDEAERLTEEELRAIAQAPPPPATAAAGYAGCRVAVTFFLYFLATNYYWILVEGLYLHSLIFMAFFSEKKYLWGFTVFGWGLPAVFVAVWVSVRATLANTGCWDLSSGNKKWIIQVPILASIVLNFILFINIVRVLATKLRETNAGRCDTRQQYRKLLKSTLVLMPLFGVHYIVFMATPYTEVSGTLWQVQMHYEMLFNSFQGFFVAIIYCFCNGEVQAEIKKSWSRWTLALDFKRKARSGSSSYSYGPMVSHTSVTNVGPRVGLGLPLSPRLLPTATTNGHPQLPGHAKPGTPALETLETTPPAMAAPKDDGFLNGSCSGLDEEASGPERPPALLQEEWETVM
Put plainly: Competitive antagonist binding assay for hPTH-R1 (radioactive competition binding, SPA beads). Conditions: human PTHR1 membranes, [125I]-[Nle8,18,Tyr34]-PTH(1-34) 0.2 nM, 90 minutes at room temperature; read-out: hPTHR1 Ki. How it is done:
Competitive Antagonist Binding Assay Protocol for hPTH-R1 Antagonists:
The inhibition of binding to the human PTHR1 receptor was measured in a radioactive competition binding assay using the radiolabeled [^125I]-[NLE^8,18, TYR^34]-parathyroid hormone (1-34) ligand (PerkinElmer Cat# NEX244, custom synthesis) as the probe ligand for the receptor. Briefly, membranes from cells expressing the human PTHR1 (Eurofins Cat# HTS030M) were incubated with SPA beads (PerkinElmer Cat# RPNQ0001) in binding assay buffer [50 mM HEPES (Biopioneer Cat# C0113), 5 mM MgCl2 (Sigma Cat# M8266), 10 mM CaCl2 (Fisher Scientific Cat# BP510), 0.1% BSA (Fisher Scientific Cat# BP1600), 0.01% TritonX-100 (Bio-Rad Cat#161-0407), and protease inhibitors (Pierce Cat# A32963); pH 7.4]. Membranes bound to SPA bead were treated with various dilutions of compounds (final concentrations typically 0-10,000 nM), and 0.2 nM radiolabeled ligand in 96-well isoplates (PerkinElmer Cat#6005040) for 90 minutes at room temperature. The radioactive signal was detected using a MicroBetaTriLux 1450 LSC (PerkinElmer). All data manipulations to determine the Ki values were performed using GraphPad v8 (GraphPad, San Diego Calif.).

On to “3-({2-[(4-{4-chloro-13-cyano-8-methyl-9-oxo-6,8,10-triazatricyclo[9.4.0.0^2,7]pentadeca-1(11),2(7),3,5,12,14-hexaen-10-yl}-3,5-difluorophenyl)amino]ethyl}amino)propanoic acid [1-217]”, for which the Ki was < 0.1 µM. Consider “4-chloro-10-(2,6-difluoro-4-{[2-(methylamino)ethyl]amino}phenyl)-8-methyl-9-oxo-6,8,10-triazatricyclo[9.4.0.0^2,7]pentadeca-1(11),2(7),3,5,12,14-hexaene-13-carbonitrile [1-211]”, for which the inhibition constant Ki was < 0.1 µM.

Consider “10-[4-({2-[(3-amino-2-hydroxypropyl)amino]ethyl}amino)-2,6-difluorophenyl]-4-chloro-8-ethyl-9-oxo-6,8,10-triazatricyclo[9.4.0.0^2,7]pentadeca-1(11),2(7),3,5,12,14-hexaene-13-carbonitrile [1-188]”, for which the Ki was < 0.1 µM.

`CNCCNc1cc(F)c(N2C(=O)N(C)c3ncccc3-c3ccc(Cl)cc32)c(F)c1` [1-1, 13-chloro-10-(2,6-difluoro-4-{[2-(methylamino)ethyl]amino}phenyl)-8-methyl-6,8,10-triazatricyclo[9.4.0.0^2,7]pentadeca-1(11),2(7),3,5,12,14-hexaen-9-one]: the Ki was < 0.1 µM. For the compound `CCN1C(=O)N(c2c(F)cc(NCCNC)cc2F)c2cc(Cl)ccc2-c2cccnc21` [1-2, 13-chloro-10-(2,6-difluoro-4-{[2-(methylamino)ethyl]amino}phenyl)-8-ethyl-6,8,10-triazatricyclo[9.4.0.0^2,7]pentadeca-1(11),2(7),3,5,12,14-hexaen-9-one], the Ki was < 0.1 µM.

With `CCN1C(=O)N(c2c(F)cc(NCCN)cc2F)c2cc(Cl)ccc2-c2cccnc21` [1-3, 10-{4-[(2-aminoethyl)amino]-2,6-difluorophenyl}-13-chloro-8-ethyl-6,8,10-triazatricyclo[9.4.0.0^2,7]pentadeca-1(11),2(7),3,5,12,14-hexaen-9-one], the Ki was < 0.1 µM.

Turning to `CCN1C(=O)N(c2c(F)cc(NCCNC3CCOCC3)cc2F)c2cc(Cl)ccc2-c2cccnc21` [1-4, 13-chloro-10-[2,6-difluoro-4-({2-[(oxan-4-yl)amino]ethyl}amino)phenyl]-8-ethyl-6,8,10-triazatricyclo[9.4.0.0^2,7]pentadeca-1(11),2(7),3,5,12,14-hexaen-9-one], the Ki is < 0.1 µM. Consider `CCN1C(=O)N(c2c(F)cc(NCCNC3CCOC3)cc2F)c2cc(Cl)ccc2-c2cccnc21` (stereo not shown) [1-5, 13-chloro-10-[2,6-difluoro-4-({2-[(oxolan-3-yl)amino]ethyl}amino)phenyl]-8-ethyl-6,8,10-triazatricyclo[9.4.0.0^2,7]pentadeca-1(11),2(7),3,5,12,14-hexaen-9-one], for which the Ki is < 0.1 µM. In the case of `CCN1C(=O)N(c2c(F)cc(NCCNCCCC(=O)O)cc2F)c2cc(Cl)ccc2-c2cccnc21` [1-6, 4-({2-[(4-{13-chloro-8-ethyl-9-oxo-6,8,10-triazatricyclo[9.4.0.0^2,7]pentadeca-1(11),2(7),3,5,12,14-hexaen-10-yl}-3,5-difluorophenyl)amino]ethyl}amino)butanoic acid], the Ki was < 0.1 µM.

Regarding `CCN1C(=O)N(c2c(F)cc(NCCNCCO)cc2F)c2cc(Cl)ccc2-c2cccnc21` [1-7, 13-chloro-10-[2,6-difluoro-4-({2-[(2-hydroxyethyl)amino]ethyl}amino)phenyl]-8-ethyl-6,8,10-triazatricyclo[9.4.0.0^2,7]pentadeca-1(11),2(7),3,5,12,14-hexaen-9-one], the inhibition constant (Ki) is < 0.1 µM. As for `CCN1C(=O)N(c2c(F)cc(NCCNC)cc2F)c2cc(Cl)ccc2-c2cc(Cl)cnc21` [1-8, 4,13-dichloro-10-(2,6-difluoro-4-{[2-(methylamino)ethyl]amino}phenyl)-8-ethyl-6,8,10-triazatricyclo[9.4.0.0^2,7]pentadeca-1(11),2(7),3,5,12,14-hexaen-9-one], the Ki was < 0.1 µM.

As to `CCN1C(=O)N(c2c(F)cc(NCCN)cc2F)c2cc(Cl)ccc2-c2cc(Cl)cnc21` [1-9, 10-{4-[(2-aminoethyl)amino]-2,6-difluorophenyl}-4,13-dichloro-8-ethyl-6,8,10-triazatricyclo[9.4.0.0^2,7]pentadeca-1(11),2(7),3,5,12,14-hexaen-9-one], the Ki is < 0.1 µM. Then `CCN1C(=O)N(c2c(F)cc(NCCNCCCC(=O)O)cc2F)c2cc(Cl)ccc2-c2cc(Cl)cnc21` [1-10, 4-({2-[(4-{4,13-dichloro-8-ethyl-9-oxo-6,8,10-triazatricyclo[9.4.0.0^2,7]pentadeca-1(11),2(7),3,5,12,14-hexaen-10-yl}-3,5-difluorophenyl)amino]ethyl}amino)butanoic Acid], with < 0.1 µM; and `CCN1C(=O)N(c2c(F)cc(NCCNCCO)cc2F)c2cc(Cl)ccc2-c2cc(Cl)cnc21` [1-11, 4,13-dichloro-10-[2,6-difluoro-4-({2-[(2-hydroxyethyl)amino]ethyl}amino)phenyl]-8-ethyl-6,8,10-triazatricyclo[9.4.0.0^2,7]pentadeca-1(11),2(7),3,5,12,14-hexaen-9-one], with < 0.1 µM. The same measure for `CCN1C(=O)N(c2c(F)cc(NCCNC3CCOCC3)cc2F)c2cc(Cl)ccc2-c2cc(Cl)cnc21` [1-12, 4,13-dichloro-10-[2,6-difluoro-4-({2-[(oxan-4-yl)amino]ethyl}amino)phenyl]-8-ethyl-6,8,10-triazatricyclo[9.4.0.0^2,7]pentadeca-1(11),2(7),3,5,12,14-hexaen-9-one]: < 0.1 µM; for `CCN1C(=O)N(c2c(F)cc(NCCNC3CCOC3)cc2F)c2cc(Cl)ccc2-c2cc(Cl)cnc21` (stereo not shown) [1-13, 4,13-dichloro-10-[2,6-difluoro-4-({2-[(oxolan-3-yl)amino]ethyl}amino)phenyl]-8-ethyl-6,8,10-triazatricyclo[9.4.0.0^2,7]pentadeca-1(11),2(7),3,5,12,14-hexaen-9-one]: < 0.1 µM; for `CCN1C(=O)N(c2c(F)cc(NCCNC)cc2F)c2cc(Cl)ccc2-c2cc(F)cnc21` [1-14, 13-chloro-10-(2,6-difluoro-4-{[2-(methylamino)ethyl]amino}phenyl)-8-ethyl-4-fluoro-6,8,10-triazatricyclo[9.4.0.0^2,7]pentadeca-1(11),2(7),3,5,12,14-hexaen-9-one]: < 0.1 µM.

With `CCN1C(=O)N(c2c(F)cc(NCCN)cc2F)c2cc(Cl)ccc2-c2cc(F)cnc21` [1-15, 10-{4-[(2-aminoethyl)amino]-2,6-difluorophenyl}-13-chloro-8-ethyl-4-fluoro-6,8,10-triazatricyclo[9.4.0.0^2,7]pentadeca-1(11),2(7),3,5,12,14-hexaen-9-one], the Ki is < 0.1 µM.

Regarding `CCN1C(=O)N(c2c(F)cc(NCCNCCCC(=O)O)cc2F)c2cc(Cl)ccc2-c2cc(F)cnc21` [1-16, 4-({2-[(4-{13-chloro-8-ethyl-4-fluoro-9-oxo-6,8,10-triazatricyclo[9.4.0.0^2,7]pentadeca-1(11),2(7),3,5,12,14-hexaen-10-yl}-3,5-difluorophenyl)amino]ethyl}amino)butanoic acid], the Ki was < 0.1 µM.

With `CCN1C(=O)N(c2c(F)cc(NCCNCCO)cc2F)c2cc(Cl)ccc2-c2cc(F)cnc21` [1-17, 13-chloro-10-[2,6-difluoro-4-({2-[(2-hydroxyethyl)amino]ethyl}amino)phenyl]-8-ethyl-4-fluoro-6,8,10-triazatricyclo[9.4.0.0^2,7]pentadeca-1(11),2(7),3,5,12,14-hexaen-9-one], the inhibitory constant (Ki) was < 0.1 µM. The same measure for `CCN1C(=O)N(c2c(F)cc(NCCNC)cc2F)c2cc(Cl)ccc2-c2cc(C)cnc21` [1-18, 13-chloro-10-(2,6-difluoro-4-{[2-(methylamino)ethyl]amino}phenyl)-8-ethyl-4-methyl-6,8,10-triazatricyclo[9.4.0.0^2,7]pentadeca-1(11),2(7),3,5,12,14-hexaen-9-one]: < 0.1 µM; for `CCN1C(=O)N(c2c(F)cc(NCCNC3CCOCC3)cc2F)c2cc(Cl)ccc2-c2cc(F)cnc21` [1-19, 13-chloro-10-[2,6-difluoro-4-({2-[(oxan-4-yl)amino]ethyl}amino)phenyl]-8-ethyl-4-fluoro-6,8,10-triazatricyclo[9.4.0.0^2,7]pentadeca-1(11),2(7),3,5,12,14-hexaen-9-one]: < 0.1 µM.
